Measurements reported in paper PMC4811503, “A method for quantification of exportin-1 (XPO1) occupancy by Selective Inhibitor of Nuclear Export (SINE) compounds” (Oncotarget, 2015).
Where “and” joins values, the source holds several entries; their conditions need not be identical. Identical values can stand only once. Like-named read-outs stand apart in the source and are kept apart here.

Columns and labels:
Type in all cases: cell-based
HT1080 resistant = assay: MTT cytotoxicity assay; details: Homo sapiens, HT-1080, read-out: Selinexor IC50 (μM)
MM.1S = assay: MTT cytotoxicity assay; details: Homo sapiens, MM1.S
AML2 = assay: MTT cytotoxicity assay
XPO1 = XPO1 (Homo sapiens, UniProt O14980); assay: XPO1 occupancy assay in cultured cell lines (biotinylated probe pull-down, Simple Western); set-up: Cells were collected, washed with PBS, and lysed with RIPA Buffer; endogenous in cells; host or cells: MM.1S
Experimental: b-LMB was tested for the ability to bind XPO1 protein. First, a dose-response curve was generated by exposing MM.1S cells to increasing concentrations of b-LMB (0 – 500 nM) for 1.5 hours in culture. The cells were then collected, lysed, and a portion of the lysate (input) was reserved prior to incubating the remaining lysate with streptavidin-tagged beads overnight. After extensive washes, b-LMB bound XPO1 was eluted from the beads, and XPO1 from both input and bead eluate was detected and quantified by Simple Western on Peggy Sue. Simple Western allows for the chemiluminescent detection of proteins from small volumes of samples that are run through a matrix-filled capillary. The signal is detected by a CCD camera which generates a digital image and then reports quantitative results. […] The protein signals for XPO1 detected by Simple Western in Figure 2A were reported as mean peak areas and were used to compare levels of XPO1 present in each sample to produce a graphical representation of the ratio of free XPO1 detected at each concentration of b-LMB (Figure 2B). “Ratio of bound XPO1” is defined as the ratio of the mean peak area of b-LMB bound XPO1 detected in the eluate compared to the mean peak area of all XPO1 detected in the input lysate, while “free-fraction” refers to the amount of XPO1 not occupied by SINE compound, as described later.
The cells were then collected and processed for the XPO1 occupancy assay. […] For these assays, the “ratio of free-fraction XPO1” is calculated by dividing the mean peak areas of XPO1 occupied by b-LMB (from the eluate) by the total amount of XPO1 (from the input).
Cells were collected, washed with PBS, and lysed with RIPA Buffer (Thermo Scientific) with protease inhibitors [Complete Ultra Tablets, Mini, EDTA-free, Easy pack (Roche), PhosStop Easy (Roche)]. A portion of the lysate was reserved (input) while the rest was added to washed Dynabeads MyOne Streptavidin T1 (Invitrogen) with RIPA Buffer. Samples were incubated overnight with constant rotation at 4°C. Beads were then washed 5 times with modified RIPA (150 mM NaCl, 50 mM Tris, 1% NP-40, 0.1% Na deoxycholate, 1 mM EDTA, pH 7.8). The reserved portion of lysates (input) and the beads were each mixed with Protein Simple buffer (Protein Simple), DTT (Invitrogen), and fluorescent standards (Protein Simple), then boiled at 95°C for 10 min. Eluates and inputs were analyzed using a capillary western method (Peggy Sue; Protein Simple) with the following primary antibodies: XPO1 (Santa Cruz) and β-actin (Santa Cruz). Capillary westerns were performed by SBH Sciences (Natick, MA). Peak areas corresponding to the protein molecular weight of XPO1 and actin were compared for sample inputs, while the ratio of XPO1 peak areas in eluate to input (ratio of bound or free-fraction XPO1) versus compound concentration were used in XLFit model 205 to calculate 50% and 90% occupancy curves.

UCH2 = assay: MTT cytotoxicity assay; details: read-out: Selinexor IC50 (μM)
A549 = assay: MTT cytotoxicity assay; details: Homo sapiens, read-out: Selinexor IC50 (μM)
Kasumi-6 = assay: MTT cytotoxicity assay; details: read-out: Selinexor IC50 (μM)
HEL = assay: MTT cytotoxicity assay; details: Homo sapiens, read-out: Selinexor IC50 (μM)
[1] = read-out: Selinexor IC50 (μM), MTT

XPO1, sequence (O14980 whole entry): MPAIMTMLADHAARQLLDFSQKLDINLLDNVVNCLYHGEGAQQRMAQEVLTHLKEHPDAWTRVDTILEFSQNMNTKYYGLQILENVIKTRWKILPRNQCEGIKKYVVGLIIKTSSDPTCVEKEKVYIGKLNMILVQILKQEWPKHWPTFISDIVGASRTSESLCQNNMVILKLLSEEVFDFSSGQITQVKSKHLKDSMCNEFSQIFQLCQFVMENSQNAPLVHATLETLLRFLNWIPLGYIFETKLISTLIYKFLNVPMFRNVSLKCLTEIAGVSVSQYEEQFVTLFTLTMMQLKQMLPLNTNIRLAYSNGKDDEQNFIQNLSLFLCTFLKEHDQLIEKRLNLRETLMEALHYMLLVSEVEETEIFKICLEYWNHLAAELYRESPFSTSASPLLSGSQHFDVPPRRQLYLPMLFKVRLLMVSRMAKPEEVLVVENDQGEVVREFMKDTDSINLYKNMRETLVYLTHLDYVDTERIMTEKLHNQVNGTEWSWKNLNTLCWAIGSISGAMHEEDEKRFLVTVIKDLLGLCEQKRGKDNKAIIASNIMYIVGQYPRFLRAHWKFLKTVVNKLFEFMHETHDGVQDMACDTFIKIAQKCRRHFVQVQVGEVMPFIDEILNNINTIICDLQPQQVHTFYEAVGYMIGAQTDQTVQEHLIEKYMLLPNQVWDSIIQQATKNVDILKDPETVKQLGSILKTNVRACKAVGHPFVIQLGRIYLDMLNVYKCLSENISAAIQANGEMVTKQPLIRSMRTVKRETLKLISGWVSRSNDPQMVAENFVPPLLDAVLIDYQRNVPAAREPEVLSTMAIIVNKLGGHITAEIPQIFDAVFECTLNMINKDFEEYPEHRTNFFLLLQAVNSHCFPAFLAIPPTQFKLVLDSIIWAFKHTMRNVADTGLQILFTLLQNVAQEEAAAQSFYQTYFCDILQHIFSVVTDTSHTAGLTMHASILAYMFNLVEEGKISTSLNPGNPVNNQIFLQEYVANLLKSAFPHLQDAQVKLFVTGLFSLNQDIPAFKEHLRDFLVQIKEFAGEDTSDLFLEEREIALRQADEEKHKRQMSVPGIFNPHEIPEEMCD

O=C(/C=C\n1cnc(-c2cc(C(F)(F)F)cc(C(F)(F)F)c2)n1)NNc1cnccn1 [Selinexor, selinexor]
IC50 (HT1080 resistant): 2.4 µM
IC50 (MM.1S; 72 hours, read-out: IC50): 0.02 µM
IC50 (MM.1S; [1]): 0.02 µM
IC50 (AML2; 72 hours, read-out: IC50): 0.09 µM
IC50 (AML2; [1]): 0.09 µM
90% Occupancy selinexor (XPO1; A549): 0.56 µM
90% Occupancy selinexor (XPO1; AML2): 0.22 µM
90% Occupancy selinexor (XPO1; AML3): 0.46 µM
90% Occupancy selinexor (XPO1; ASPS-KY): 0.72 µM
90% Occupancy selinexor (XPO1; HCT-116): 0.76 µM
90% Occupancy selinexor (XPO1; HEL): 0.31 µM
90% Occupancy selinexor (XPO1; HT1080): 1.35 µM
90% Occupancy selinexor (XPO1; HT1080 resistant): 1.67 µM
90% Occupancy selinexor (XPO1; Kasumi-6): 0.57 µM
90% Occupancy selinexor (XPO1; LS174T): 0.38 µM
90% Occupancy selinexor (XPO1; MM.1S): 0.48 µM
Avg 90% Occupancy (μM) (XPO1; MM.1S cells, SINE compound 1 hour, then 1 nM b-LMB […]): 0.52 +/− 0.05 (n = 2) μM
90% Occupancy (XPO1; MM.1S cells, followed by 0.1 μM KPT-9058 as probe): 0.1 µM and 0.10 µM
90% Occupancy selinexor (XPO1; MV-4–11): 0.61 µM
90% of XPO1 occupancy (XPO1; Rev-GFP U2OS cells, selinexor 1 hour, then 1 nM b-LMB […]): 0.48 µM
90% Occupancy (XPO1; Rev-GFP U2OS, selinexor 4 hours, 0 hours post washout, 1 nM b-LMB): 0.16 µM
90% Occupancy (XPO1; Rev-GFP U2OS, selinexor 4 hours, 4 hours post washout, 1 nM b-LMB): 2.87 µM
90% Occupancy (XPO1; Rev-GFP U2OS, selinexor 4 hours, 24 hours post washout, 1 nM b-LMB): > 10 µM
90% Occupancy (XPO1; Rev-GFP U2OS, selinexor 4 hours, 48 hours post washout, 1 nM b-LMB): > 10 µM
90% Occupancy (XPO1; Rev-GFP U2OS, selinexor 4 hours, 72 hours post washout, 1 nM b-LMB): > 10 µM
90% Occupancy (XPO1; Rev-GFP U2OS, selinexor 4 hours, 96 hours post washout, 1 nM b-LMB): > 10 µM
90% Occupancy selinexor (XPO1; THP-1): 0.94 µM
90% Occupancy selinexor (XPO1; UCH1): 0.65 µM
90% Occupancy selinexor (XPO1; UCH2): 0.89 µM
IC50 (UCH2): 30 µM
IC50 (A549): 3 µM
IC50 (Kasumi-6): 0.53 µM
IC50 (HEL): 0.35 µM
